Data on 2 molecules can be found in patent EP0123546A2, “Compositions for treating inflammation and eliciting analgesia” (Norwich Eaton Pharmaceuticals, Inc., priority 1983, dated 1984).

In test [1] the test system is carrageenin-induced rat paw edema. The experiment in a line: carrageenin-induced rat paw edema method (Winter et al.). The test is classed as in vivo, male Wistar rats. The conditions noted are these: for protection: 300 mg/kg p.o. The source says:
The compound 5-(4-chlorophenyl)-2-furancarboxylic acid (I) [drawing 1] and its preparation have been described in the chemical literature (Mathur et al. , J. Chem. Soc., 1961 (Part 2), 2576-2578). It has now been discovered that this compound exerts impressive anti-inflammatory activity using the well recognized carrageenin- induced rat paw edema method described by Winter et al. in Proc. Soc. […] Positive results secured under this method are correlative to successful performance in other species where the need for anti-inflammatory medication is present.
In accordance with the aforementioned -method, fasted male Wistar rats, 100-125 g., were dosed in groups of 3 with […] p.o. of (1) in 0.5% (wlv) methylcellulose. A control group of 20 rats (groups of 5 rats each combined from 4 separate experiments) received methylcellulose only at the same dose rate of 10 ml/kg. One hour later 0.05 ml of 1% (w/v) carrageenin was injected into the plantar region of the right hindpaw of each rat, using a 27-gauge 1/2-inch needle. Before oral dosing and at 4 and 6 hours post-carrageenin, hindpaw volumes were determined by immersing the feet in a liquid mercury bath to the level of the anatomical hairline. Displacement of the mercury was determined as a pressure difference, measured through a Statham venous pressure transducer coupled to a Grass Model 7 polygraph. The polygraph was calibrated such that a 1 ml displacement produced a 1 mm pen deflection. Two consecutive measurements were taken in all cases and the mean value used in calculations. Calculation of the ED50 value was done as described below for the mouse writhing data. Mean percent protection increased at 4 hours from 0 to 3 mg/kg p.o. to 51.5 at 100 mg/kg p.o. and at 6 hours from 16.6 at 3 mg/kg to 39.9 at 100 mg/kg in a dose-dependent manner. The high dose of 300 mg/kg p.o. gave 34.9 and 23.2% protection at 4 and 6 hours, respectively.
Background: The carrageenan paw model is a standard test of acute inflammation.

The subject of test [2] is ultraviolet light-induced cutaneous erythema. The experiment in a line: ultraviolet light-induced cutaneous erythema test (Winder et al.). The conditions noted are these: Cavia porcellus, po; linear regression of log dose versus percent protection, combined 2, 3 and 4 hour readings. The test is classed as in vivo, guinea pigs. The method, then: Guinea pigs weighing 280-715 g were fasted 24 hours and the dorsal-lateral surface was cleared by clipping and chemical depilation. The animals were placed in an opaque rubber glove with three circular, 6 mm punched holes. Exposure for 90 seconds at a distance of 7 cm to a Model 30620 Hanovia ultraviolet lamp with a Type 616A bulb and Type 6540-001 filter produced the erythema. (I) in methylcellulose was administered orally one hour before irradiation to groups of 5 animals at doses from 5 to 153 mg/kg at a rate of 10 mI/kg. Erythema was scored at 2, 3 and 4 hours post-irradiation as 0 (no redness), 0.5 (slight redness) or 1 (full red circle). Percent protection was calculated with reference to a vehicle-dosed control group of 5 animals treated on the same day. ED50 values were estimated by linear regression analysis of the log dose versus percent protection (combined 2, 3 and 4 hour readings) relationship.

Test [3] has as its system phenylquinone-induced writhing. In words: antagonism of phenylquinone-induced writhing (Hendershot and Forsaith). The class given is in vivo, male albino mice. The conditions noted are these: for Mean percent protection: one hour before phenylquinone i.p.; for ED50: Mus musculus, read-out: dose giving 50% protection (ED50). The method, then:
Groups of 10 fasted male albino mice, 14-28 g. were dosed by gavage with 18-1,000 mg/kg (I) in 0.5% (w/v) methylcellulose or with methylcellulose solution alone. One hour later each mouse received 10 ml/kg of 0.02% phenylquinone in 5% ethanol intraperitoneally. The characteristic writhing responses were observed and counted from 5 to 15 minutes after phenylquinone administration.
In general terms: In writhing tests, fewer writhes than in controls are read as antinociception.

The subject of test [4] is ultraviolet light-induced cutaneous erythema. The conditions noted are these: similar evaluation; Goldenberg et al., op cit.; cited from earlier work.
The test system of test [5] is carrageenin-induced rat paw edema. The conditions noted are these: same test; Goldenberg et al., Arch. Int. Pharmacodyn. Ther., 243:331-350, 1980; cited from earlier work.

Read-outs that look alike come from different tables or passages of the source.

As usually defined, the ED50 is the midpoint of the dose-response relation.

As to `O=C(O)c1ccc(-c2ccc(Cl)cc2)o1` [(I), 5-(4-chlorophenyl)-2-furancarboxylic acid], the Mean percent protection in test [1] (3 mg/kg p.o., 4 hours post-carrageenin) amounted to 0%; in test [1] (3 mg/kg p.o., 6 hours post-carrageenin) it was 16.6%; in test [1] (100 mg/kg p.o., 4 hours post-carrageenin) it was 51.5%; in test [1] (100 mg/kg p.o., 6 hours post-carrageenin), 39.9%; in test [3] (18 mg/kg by gavage), 13.1%; in test [3] (1,000 mg/kg by gavage), 92.4%. Further, the values for the protection in test [1] (4 hours post-carrageenin) and in test [1] (6 hours post-carrageenin) were 34.9% and 23.2%, respectively. Besides, the ED50 in test [1] (Rattus norvegicus, 4 hours post-carrageenin, oral dose 1 hour before carrageenin) was found to be 84.2 mg/kg; in test [2], 24 mg/kg; in test [3] (linear regression of log oral dose versus percent protection), 213 mg/kg.

For the molecule `CC(=O)Oc1ccccc1C(=O)O` [aspirin], in test [4], the ED50 estimate is recorded as 49.5 mg/kg p.o. The ED50 value in test [5] is recorded as 155 mg/kg p.o. Further, the ED50 in test [3] (po) worked out at 182 mg/kg.
